Measurements reported in ChEMBL document CHEMBL3259721, “Base substituted 5'-O-(N-isoleucyl)sulfamoyl nucleoside analogues as potential antibacterial agents” (Bioorg Med Chem, 2014).
Calls of active or inactive are those of the source. The calls are words filed in the database; no cut-off is given here. Peptide text beside a SMILES is read from it. * marks the point of attachment. X6 = CC[C@H](C)[C@H](N*)C(=O)NS(=O)(=O)OC[C@H]1O[C@@H](n2cnc3c([N+](=O)[O-])cccc32)[C@H](O)[C@@H]1O; X7 = CC[C@H](C)[C@H](N*)C(=O)NS(=O)(=O)OC[C@H]1O[C@@H](n2cnc3c(=O)[nH]c(N)nc32)[C@H](O)[C@@H]1O; X3 = CC[C@H](C)[C@H](N*)C(=O)NS(=O)(=O)OC[C@H]1O[C@@H](n2ccc(=O)[nH]c2=O)[C@H](O)[C@@H]1O; X1 = CC[C@H](C)[C@H](N*)C(=O)NS(=O)(=O)OC[C@H]1O[C@@H](n2cnc3c(N)cccc32)[C@H](O)[C@@H]1O; X2 = CC[C@H](C)[C@H](N*)C(=O)NS(=O)(=O)OC[C@H]1O[C@@H](n2cnc3c(N)ncnc32)[C@H](O)[C@@H]1O; X4 = CC[C@H](C)[C@H](N*)C(=O)NS(=O)(=O)OC[C@H]1O[C@@H](n2cnc3c(O)ncnc32)[C@H](O)[C@@H]1O; X5 = CC[C@H](C)[C@H](N*)C(=O)NS(=O)(=O)OC[C@H]1O[C@@H](n2ccc(N)nc2=O)[C@H](O)[C@@H]1O; For = O=C*

Legend:
[1] = system: Escherichia coli; assay: Antibacterial activity against wild type Escherichia coli assessed as growth inhibition in Luria broth at 5 mM after 8 to 18 hrs by broth dilution test; assay type: functional, organism-based
[2] = system: Escherichia coli; assay: Antibacterial activity against wild type Escherichia coli Ara-Yej (BW39758) assessed as growth inhibition in Luria broth at 10 to 60 uM after 8 hrs by broth dilution test; assay type: functional, organism-based
[3] = molecular target: Isoleucine--tRNA ligase (Escherichia coli K-12) (UniProt P00956); assay: Inhibition of Isoleucine-tRNA synthetase in wild type Escherichia coli S30 cell extract assessed as inhibition of [C14]isoleucine incorporation in tRNA under in vitro aminoacylation conditions at 3.13 uM by liquid scintillation counting
[4] = system: Escherichia coli; assay: Antibacterial activity against wild type Escherichia coli assessed as growth inhibition in Luria broth at 5 mM after 8 to 18 hrs by disc diffusion method; assay type: functional, organism-based

Isoleucine--tRNA ligase (Escherichia coli K-12), sequence (P00956 whole entry, the tested form may be a part): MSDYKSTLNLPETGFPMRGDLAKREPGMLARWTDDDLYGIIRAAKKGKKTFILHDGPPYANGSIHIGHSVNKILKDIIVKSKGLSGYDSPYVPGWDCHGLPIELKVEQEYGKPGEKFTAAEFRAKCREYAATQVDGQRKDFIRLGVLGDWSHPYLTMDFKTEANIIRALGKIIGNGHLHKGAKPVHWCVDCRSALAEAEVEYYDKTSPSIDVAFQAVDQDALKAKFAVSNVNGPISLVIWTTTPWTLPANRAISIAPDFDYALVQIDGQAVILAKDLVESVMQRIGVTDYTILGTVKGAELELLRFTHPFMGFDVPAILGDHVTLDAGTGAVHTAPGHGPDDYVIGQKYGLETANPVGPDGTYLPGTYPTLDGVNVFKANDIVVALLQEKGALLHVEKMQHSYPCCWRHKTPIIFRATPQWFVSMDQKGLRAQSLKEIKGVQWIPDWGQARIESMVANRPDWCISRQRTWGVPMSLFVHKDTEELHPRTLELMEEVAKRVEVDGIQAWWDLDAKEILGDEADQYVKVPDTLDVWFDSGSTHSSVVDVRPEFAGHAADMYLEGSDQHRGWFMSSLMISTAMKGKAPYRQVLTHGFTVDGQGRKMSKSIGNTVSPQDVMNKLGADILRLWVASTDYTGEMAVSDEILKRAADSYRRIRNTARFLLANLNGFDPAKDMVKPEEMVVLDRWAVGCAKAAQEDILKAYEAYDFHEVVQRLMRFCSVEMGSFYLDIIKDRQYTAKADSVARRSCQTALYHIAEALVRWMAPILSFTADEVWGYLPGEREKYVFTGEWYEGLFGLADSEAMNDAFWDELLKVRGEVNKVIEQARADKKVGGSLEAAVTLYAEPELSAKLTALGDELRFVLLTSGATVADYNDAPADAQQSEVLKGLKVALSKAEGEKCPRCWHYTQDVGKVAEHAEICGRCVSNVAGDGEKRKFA

SMILES | growth inhibition (GI) [1] | growth inhibition (GI) [2] | inhibition [3] | growth inhibition (GI) [4]
CC[C@H](C)[C@H](NC(=O)[C@H](C)NC(=O)[C@H](CC(N)=O)NC(=O)CNC(=O)[C@@H](NC(=O)[C@H](CCCNC(=N)N)NC(=O)[C@H](CCSC)NC=O)[C@@H](C)O)C(=O)NS(=O)(=O)OC[C@H]1O[C@@H](n2cnc3c([N+](=O)[O-])cccc32)[C@H](O)[C@@H]1O (For-MRTGNA-X6) | inactive |  |  | 
CC[C@H](C)[C@H](NC(=O)[C@H](C)NC(=O)[C@H](CC(N)=O)NC(=O)CNC(=O)[C@@H](NC(=O)[C@H](CCCNC(=N)N)NC(=O)[C@H](CCSC)NC=O)[C@@H](C)O)C(=O)NS(=O)(=O)OC[C@H]1O[C@@H](n2cnc3c(O)ncnc32)[C@H](O)[C@@H]1O (For-MRTGNA-X4) | inactive | Active |  | 
CC[C@H](C)[C@H](N)C(=O)NS(=O)(=O)OC[C@H]1O[C@@H](n2ccc(N)nc2=O)[C@H](O)[C@@H]1O |  |  | Active | inactive
CC[C@H](C)[C@H](NC(=O)[C@H](C)NC(=O)[C@H](CC(N)=O)NC(=O)CNC(=O)[C@@H](NC(=O)[C@H](CCCNC(=N)N)NC(=O)[C@H](CCSC)NC=O)[C@@H](C)O)C(=O)NS(=O)(=O)OC[C@H]1O[C@@H](n2cnc3c(N)cccc32)[C@H](O)[C@@H]1O (For-MRTGNA-X1) | inactive | Active |  | 
CC[C@H](C)[C@H](NC(=O)[C@H](C)NC(=O)[C@H](CC(N)=O)NC(=O)CNC(=O)[C@@H](NC(=O)[C@H](CCCNC(=N)N)NC(=O)[C@H](CCSC)NC=O)[C@@H](C)O)C(=O)NS(=O)(=O)OC[C@H]1O[C@@H](n2ccc(=O)[nH]c2=O)[C@H](O)[C@@H]1O (For-MRTGNA-X3) | inactive | inactive |  | 
CC[C@H](C)[C@H](N)C(=O)NS(=O)(=O)OC[C@H]1O[C@@H](n2cnc3c([N+](=O)[O-])cccc32)[C@H](O)[C@@H]1O |  |  | Active | inactive
CC[C@H](C)[C@H](NC(=O)[C@H](C)NC(=O)[C@H](CC(N)=O)NC(=O)CNC(=O)[C@@H](NC(=O)[C@H](CCCNC(=N)N)NC(=O)[C@H](CCSC)NC=O)[C@@H](C)O)C(=O)NS(=O)(=O)OC[C@H]1O[C@@H](n2cnc3c(=O)[nH]c(N)nc32)[C@H](O)[C@@H]1O (For-MRTGNA-X7) | inactive |  |  | 
CC[C@H](C)[C@H](NC(=O)[C@H](C)NC(=O)[C@H](CC(N)=O)NC(=O)CNC(=O)[C@@H](NC(=O)[C@H](CCCNC(=N)N)NC(=O)[C@H](CCSC)NC=O)[C@@H](C)O)C(=O)NS(=O)(=O)OC[C@H]1O[C@@H](n2ccc(N)nc2=O)[C@H](O)[C@@H]1O (For-MRTGNA-X5) | inactive |  |  | 
CC[C@H](C)[C@H](N)C(=O)NS(=O)(=O)OC[C@H]1O[C@@H](n2cnc3c(=O)[nH]c(N)nc32)[C@H](O)[C@@H]1O |  |  | Active | inactive
CC[C@H](C)[C@H](NC(=O)[C@H](C)NC(=O)[C@H](CC(N)=O)NC(=O)CNC(=O)[C@@H](NC(=O)[C@H](CCCNC(=N)N)NC(=O)[C@H](CCSC)NC=O)[C@@H](C)O)C(=O)NS(=O)(=O)OC[C@H]1O[C@@H](n2cnc3c(N)ncnc32)[C@H](O)[C@@H]1O (For-MRTGNA-X2) | inactive | Active |  | 
CC[C@H](C)[C@H](N)C(=O)NS(=O)(=O)OC[C@H]1O[C@@H](n2ccc(=O)[nH]c2=O)[C@H](O)[C@@H]1O |  |  | Active | inactive
CC[C@H](C)[C@H](N)C(=O)NS(=O)(=O)OC[C@H]1O[C@@H](n2cnc3c(O)ncnc32)[C@H](O)[C@@H]1O |  |  | Active | inactive
CC[C@H](C)[C@H](N)C(=O)NS(=O)(=O)OC[C@H]1O[C@@H](n2cnc3c(N)cccc32)[C@H](O)[C@@H]1O |  |  | Active | inactive
CC[C@H](C)[C@H](N)C(=O)NS(=O)(=O)OC[C@H]1O[C@@H](n2cnc3c(N)ncnc32)[C@H](O)[C@@H]1O |  |  | Active | inactive
